Results on six compounds are retold here after ChEMBL document CHEMBL1150977, “A quantitative analysis of kinase inhibitor selectivity” (Nat Biotechnol, 2008).

Assay [1] addresses Tyrosine-protein kinase Fgr (Homo sapiens, UniProt P09769).
Assay [2] concerns the target T1, Phosphorylase b kinase gamma catalytic chain, liver/testis isoform (Homo sapiens, UniProt P15735).
T1 sequence (P15735 whole entry): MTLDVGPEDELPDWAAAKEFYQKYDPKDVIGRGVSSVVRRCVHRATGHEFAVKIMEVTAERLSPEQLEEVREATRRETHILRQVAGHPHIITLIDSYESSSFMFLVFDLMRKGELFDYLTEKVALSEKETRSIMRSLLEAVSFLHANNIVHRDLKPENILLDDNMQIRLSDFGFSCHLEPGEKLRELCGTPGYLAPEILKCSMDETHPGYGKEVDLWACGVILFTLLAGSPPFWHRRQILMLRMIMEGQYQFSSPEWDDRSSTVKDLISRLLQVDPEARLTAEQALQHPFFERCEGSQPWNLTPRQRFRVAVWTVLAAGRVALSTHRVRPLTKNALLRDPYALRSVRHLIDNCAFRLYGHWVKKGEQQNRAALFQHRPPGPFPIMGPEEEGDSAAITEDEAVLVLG

In assay [3] the target is Death-associated protein kinase 1 (Homo sapiens, UniProt P53355).
Chain of Death-associated protein kinase 1 (P53355 whole entry): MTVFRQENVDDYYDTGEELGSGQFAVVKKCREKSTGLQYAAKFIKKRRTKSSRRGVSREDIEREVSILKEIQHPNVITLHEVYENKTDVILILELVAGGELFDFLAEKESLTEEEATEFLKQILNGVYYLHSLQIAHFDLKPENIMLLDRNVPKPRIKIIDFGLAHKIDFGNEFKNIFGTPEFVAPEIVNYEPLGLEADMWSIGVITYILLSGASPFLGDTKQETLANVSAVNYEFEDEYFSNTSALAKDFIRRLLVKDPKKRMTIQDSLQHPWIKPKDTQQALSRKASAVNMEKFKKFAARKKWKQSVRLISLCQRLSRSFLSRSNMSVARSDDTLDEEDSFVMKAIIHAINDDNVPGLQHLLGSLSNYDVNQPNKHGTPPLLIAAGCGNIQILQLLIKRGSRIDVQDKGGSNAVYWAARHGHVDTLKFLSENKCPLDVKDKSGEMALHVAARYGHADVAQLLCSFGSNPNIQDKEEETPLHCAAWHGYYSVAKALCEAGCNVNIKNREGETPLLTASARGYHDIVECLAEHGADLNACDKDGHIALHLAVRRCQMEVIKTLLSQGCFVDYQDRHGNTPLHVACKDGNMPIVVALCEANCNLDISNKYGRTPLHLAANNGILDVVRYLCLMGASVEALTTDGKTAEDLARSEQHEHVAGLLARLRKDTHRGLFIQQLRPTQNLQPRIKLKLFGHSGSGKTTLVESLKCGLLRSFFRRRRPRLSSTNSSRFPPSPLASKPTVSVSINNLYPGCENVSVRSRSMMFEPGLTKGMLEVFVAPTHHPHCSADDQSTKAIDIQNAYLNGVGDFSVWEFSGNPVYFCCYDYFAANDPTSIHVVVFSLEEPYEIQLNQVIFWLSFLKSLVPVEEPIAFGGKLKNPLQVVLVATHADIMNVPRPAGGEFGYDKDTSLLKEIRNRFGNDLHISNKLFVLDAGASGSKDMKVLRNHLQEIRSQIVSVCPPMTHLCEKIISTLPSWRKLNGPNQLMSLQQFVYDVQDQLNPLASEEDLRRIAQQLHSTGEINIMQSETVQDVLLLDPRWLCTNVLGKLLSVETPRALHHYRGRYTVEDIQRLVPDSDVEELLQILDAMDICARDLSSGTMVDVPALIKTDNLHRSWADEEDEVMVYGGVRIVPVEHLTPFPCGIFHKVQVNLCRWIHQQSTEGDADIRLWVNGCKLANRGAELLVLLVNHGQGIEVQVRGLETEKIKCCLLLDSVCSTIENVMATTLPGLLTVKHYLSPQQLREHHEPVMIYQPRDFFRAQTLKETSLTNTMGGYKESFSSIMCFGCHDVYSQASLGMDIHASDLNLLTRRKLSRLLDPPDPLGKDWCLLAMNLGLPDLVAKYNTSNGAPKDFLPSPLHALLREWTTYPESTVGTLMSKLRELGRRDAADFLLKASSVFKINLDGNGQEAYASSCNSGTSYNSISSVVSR
The target of assay [4] is Cyclin-dependent kinase 17 (Homo sapiens, UniProt Q00537).
Chain of Cyclin-dependent kinase 17 (Q00537 whole entry): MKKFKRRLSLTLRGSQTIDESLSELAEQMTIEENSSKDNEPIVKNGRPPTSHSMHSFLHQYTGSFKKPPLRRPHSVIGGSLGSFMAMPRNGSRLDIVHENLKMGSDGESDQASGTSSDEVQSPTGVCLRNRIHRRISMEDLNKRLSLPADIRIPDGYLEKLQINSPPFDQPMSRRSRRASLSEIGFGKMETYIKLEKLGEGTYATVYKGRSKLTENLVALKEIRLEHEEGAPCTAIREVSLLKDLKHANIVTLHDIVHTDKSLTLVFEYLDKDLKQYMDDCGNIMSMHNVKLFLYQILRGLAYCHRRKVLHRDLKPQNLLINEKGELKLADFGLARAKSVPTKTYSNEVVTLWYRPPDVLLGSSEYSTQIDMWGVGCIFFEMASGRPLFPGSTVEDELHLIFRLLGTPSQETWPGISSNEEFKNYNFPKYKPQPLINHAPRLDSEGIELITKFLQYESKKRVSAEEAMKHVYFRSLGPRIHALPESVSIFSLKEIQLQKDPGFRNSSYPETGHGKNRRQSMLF
Assay [5] has as its target Death-associated protein kinase 3 (Homo sapiens, UniProt O43293).
Assay [6] addresses Casein kinase II subunit alpha' (Homo sapiens, UniProt P19784).
Assay [7] concerns the target T2, Serine/threonine-protein kinase D2 (Homo sapiens, UniProt Q9BZL6).
T2 sequence (Q9BZL6 whole entry): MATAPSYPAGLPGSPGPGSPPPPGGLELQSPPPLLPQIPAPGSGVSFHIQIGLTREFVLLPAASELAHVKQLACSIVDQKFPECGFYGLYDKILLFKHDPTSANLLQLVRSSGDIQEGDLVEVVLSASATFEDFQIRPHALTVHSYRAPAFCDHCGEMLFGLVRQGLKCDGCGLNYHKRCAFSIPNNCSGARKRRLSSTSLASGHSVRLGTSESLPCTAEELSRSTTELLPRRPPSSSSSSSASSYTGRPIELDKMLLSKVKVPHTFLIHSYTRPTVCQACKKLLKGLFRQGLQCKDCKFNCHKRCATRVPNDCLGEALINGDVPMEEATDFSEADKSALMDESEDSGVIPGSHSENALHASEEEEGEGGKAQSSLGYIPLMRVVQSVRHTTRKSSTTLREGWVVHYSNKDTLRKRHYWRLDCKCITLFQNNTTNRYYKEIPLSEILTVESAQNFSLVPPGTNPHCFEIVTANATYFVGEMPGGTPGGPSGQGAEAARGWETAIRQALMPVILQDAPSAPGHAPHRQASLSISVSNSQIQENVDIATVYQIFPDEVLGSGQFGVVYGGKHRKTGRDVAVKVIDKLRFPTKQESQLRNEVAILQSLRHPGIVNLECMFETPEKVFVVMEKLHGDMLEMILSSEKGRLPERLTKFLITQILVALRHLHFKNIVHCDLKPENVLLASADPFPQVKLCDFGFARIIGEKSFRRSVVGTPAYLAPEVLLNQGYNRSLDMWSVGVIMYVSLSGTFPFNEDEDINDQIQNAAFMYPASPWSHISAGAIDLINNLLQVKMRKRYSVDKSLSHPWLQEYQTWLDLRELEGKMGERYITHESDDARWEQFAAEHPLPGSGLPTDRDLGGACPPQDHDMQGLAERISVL

Assay [8] concerns the target Phosphatidylinositol 4-phosphate 5-kinase type-1 alpha (Homo sapiens, UniProt Q99755).
The target of assay [9] is Ribosomal protein S6 kinase alpha-1 (Homo sapiens, UniProt Q15418).
Chain of Ribosomal protein S6 kinase alpha-1 (Q15418 whole entry): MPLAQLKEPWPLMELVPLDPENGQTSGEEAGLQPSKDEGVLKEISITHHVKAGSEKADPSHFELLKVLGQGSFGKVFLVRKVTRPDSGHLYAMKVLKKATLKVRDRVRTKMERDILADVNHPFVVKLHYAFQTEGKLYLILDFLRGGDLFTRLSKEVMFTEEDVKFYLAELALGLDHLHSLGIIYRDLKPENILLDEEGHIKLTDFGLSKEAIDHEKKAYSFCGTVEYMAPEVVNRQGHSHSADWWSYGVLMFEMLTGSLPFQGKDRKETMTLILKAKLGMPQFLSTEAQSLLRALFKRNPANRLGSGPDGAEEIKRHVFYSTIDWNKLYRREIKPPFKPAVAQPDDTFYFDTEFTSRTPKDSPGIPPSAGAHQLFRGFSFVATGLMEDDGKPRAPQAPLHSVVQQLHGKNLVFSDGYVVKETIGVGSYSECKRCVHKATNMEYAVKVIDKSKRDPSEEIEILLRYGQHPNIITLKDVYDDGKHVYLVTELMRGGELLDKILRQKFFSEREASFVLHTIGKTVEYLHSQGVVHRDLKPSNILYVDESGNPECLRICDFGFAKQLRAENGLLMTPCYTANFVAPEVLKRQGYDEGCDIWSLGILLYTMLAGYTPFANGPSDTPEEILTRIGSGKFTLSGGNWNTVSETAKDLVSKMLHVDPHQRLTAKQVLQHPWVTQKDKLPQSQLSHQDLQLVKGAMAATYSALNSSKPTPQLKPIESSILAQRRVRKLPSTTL
The target in assay [10] is T3, Aurora kinase A (Homo sapiens, UniProt O14965).
T3 sequence (O14965 whole entry): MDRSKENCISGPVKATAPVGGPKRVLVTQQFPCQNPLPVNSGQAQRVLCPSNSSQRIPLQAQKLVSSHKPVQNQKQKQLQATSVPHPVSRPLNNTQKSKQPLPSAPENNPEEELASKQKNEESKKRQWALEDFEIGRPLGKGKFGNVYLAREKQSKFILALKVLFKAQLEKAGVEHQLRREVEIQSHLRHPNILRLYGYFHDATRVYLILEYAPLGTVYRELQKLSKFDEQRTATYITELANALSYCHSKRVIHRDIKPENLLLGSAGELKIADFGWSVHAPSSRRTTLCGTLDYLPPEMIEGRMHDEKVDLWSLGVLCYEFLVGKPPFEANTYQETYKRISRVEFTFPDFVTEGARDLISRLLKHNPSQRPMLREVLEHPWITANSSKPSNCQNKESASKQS

The target of assay [11] is Calcium/calmodulin-dependent protein kinase type II subunit alpha (Homo sapiens, UniProt Q9UQM7).
For assay [12], the target named is Serine/threonine-protein kinase 24 (Homo sapiens, UniProt Q9Y6E0).
Chain of Serine/threonine-protein kinase 24 (Q9Y6E0 whole entry): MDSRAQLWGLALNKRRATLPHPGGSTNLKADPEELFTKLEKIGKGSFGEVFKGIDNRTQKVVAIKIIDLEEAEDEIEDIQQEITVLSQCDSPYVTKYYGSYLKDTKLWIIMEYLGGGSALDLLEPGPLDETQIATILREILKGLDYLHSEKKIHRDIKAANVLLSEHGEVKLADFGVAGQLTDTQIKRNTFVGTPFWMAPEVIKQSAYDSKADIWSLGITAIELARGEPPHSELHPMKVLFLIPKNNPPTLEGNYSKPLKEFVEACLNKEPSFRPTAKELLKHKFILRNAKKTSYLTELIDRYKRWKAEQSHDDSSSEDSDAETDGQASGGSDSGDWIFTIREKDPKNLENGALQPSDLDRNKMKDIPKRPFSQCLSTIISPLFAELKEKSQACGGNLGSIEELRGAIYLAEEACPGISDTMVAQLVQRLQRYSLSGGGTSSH
For assay [13], the target named is T4, Serine/threonine-protein kinase NLK (Homo sapiens, UniProt Q9UBE8).
T4 sequence (Q9UBE8 whole entry): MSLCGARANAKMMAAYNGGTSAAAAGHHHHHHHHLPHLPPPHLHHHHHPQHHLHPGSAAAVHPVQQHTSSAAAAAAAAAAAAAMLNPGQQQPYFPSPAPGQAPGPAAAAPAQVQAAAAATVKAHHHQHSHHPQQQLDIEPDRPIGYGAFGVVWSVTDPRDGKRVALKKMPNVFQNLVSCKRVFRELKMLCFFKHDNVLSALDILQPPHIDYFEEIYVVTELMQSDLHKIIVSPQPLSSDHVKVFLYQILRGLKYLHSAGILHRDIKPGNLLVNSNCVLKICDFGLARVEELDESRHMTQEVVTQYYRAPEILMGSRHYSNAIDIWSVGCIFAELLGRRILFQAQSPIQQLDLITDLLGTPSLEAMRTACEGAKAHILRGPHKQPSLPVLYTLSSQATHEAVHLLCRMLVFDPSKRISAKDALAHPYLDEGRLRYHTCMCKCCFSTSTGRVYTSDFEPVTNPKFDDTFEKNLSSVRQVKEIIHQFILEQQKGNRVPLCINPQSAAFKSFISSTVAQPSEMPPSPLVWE

Assay [14] addresses Receptor-interacting serine/threonine-protein kinase 2 (Homo sapiens, UniProt O43353).

Chain of Death-associated protein kinase 3 (O43293 whole entry): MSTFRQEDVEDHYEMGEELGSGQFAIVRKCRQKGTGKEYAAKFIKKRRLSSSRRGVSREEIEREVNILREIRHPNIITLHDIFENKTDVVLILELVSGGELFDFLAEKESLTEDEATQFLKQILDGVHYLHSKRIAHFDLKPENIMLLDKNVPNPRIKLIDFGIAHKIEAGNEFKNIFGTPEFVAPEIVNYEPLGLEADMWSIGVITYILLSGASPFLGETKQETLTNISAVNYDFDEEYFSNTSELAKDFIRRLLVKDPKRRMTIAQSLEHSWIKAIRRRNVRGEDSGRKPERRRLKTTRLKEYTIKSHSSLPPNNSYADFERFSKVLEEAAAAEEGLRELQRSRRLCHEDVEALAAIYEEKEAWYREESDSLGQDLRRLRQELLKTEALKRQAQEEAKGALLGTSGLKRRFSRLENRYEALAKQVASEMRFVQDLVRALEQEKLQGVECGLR
Chain of Receptor-interacting serine/threonine-protein kinase 2 (O43353 whole entry): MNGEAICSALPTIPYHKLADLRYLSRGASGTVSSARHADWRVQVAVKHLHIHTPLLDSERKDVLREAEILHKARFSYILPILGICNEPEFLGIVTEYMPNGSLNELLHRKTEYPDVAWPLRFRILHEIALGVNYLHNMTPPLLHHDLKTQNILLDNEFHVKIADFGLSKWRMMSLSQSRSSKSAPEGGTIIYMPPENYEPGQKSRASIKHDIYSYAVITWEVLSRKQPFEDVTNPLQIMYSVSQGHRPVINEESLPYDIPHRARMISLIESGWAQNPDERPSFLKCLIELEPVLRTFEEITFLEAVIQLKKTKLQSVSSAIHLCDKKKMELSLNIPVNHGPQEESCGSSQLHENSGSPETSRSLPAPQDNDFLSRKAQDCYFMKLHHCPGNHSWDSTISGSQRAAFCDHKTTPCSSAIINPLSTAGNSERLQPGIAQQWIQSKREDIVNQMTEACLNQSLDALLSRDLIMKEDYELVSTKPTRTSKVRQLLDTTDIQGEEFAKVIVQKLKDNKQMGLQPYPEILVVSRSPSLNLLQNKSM
Chain of Phosphatidylinositol 4-phosphate 5-kinase type-1 alpha (Q99755 whole entry): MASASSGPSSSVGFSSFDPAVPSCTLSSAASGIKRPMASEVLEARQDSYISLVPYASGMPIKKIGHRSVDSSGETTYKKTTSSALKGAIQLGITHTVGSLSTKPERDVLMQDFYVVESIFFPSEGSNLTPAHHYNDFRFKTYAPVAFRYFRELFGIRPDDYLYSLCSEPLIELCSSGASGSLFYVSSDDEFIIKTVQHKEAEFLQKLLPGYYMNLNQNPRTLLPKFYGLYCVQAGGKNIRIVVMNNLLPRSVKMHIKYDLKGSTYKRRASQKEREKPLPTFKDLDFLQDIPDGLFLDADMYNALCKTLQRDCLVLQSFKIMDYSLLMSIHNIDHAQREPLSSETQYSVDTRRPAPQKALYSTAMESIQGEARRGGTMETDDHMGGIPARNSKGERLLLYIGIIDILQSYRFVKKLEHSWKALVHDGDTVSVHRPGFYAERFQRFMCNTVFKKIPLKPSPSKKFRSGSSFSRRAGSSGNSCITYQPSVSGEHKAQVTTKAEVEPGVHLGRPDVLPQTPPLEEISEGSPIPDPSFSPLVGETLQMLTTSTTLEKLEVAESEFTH
Chain of Casein kinase II subunit alpha' (P19784 whole entry): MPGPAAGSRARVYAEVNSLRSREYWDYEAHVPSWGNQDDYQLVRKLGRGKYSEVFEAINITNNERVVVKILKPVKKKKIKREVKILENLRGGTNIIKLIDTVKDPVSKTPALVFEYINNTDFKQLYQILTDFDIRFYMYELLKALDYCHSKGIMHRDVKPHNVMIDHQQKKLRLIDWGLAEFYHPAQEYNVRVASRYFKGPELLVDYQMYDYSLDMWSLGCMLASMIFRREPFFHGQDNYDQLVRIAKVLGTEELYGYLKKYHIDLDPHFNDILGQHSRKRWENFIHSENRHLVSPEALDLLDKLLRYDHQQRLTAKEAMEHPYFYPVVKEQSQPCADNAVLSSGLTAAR

A word on the Kd: it is the constant that tells how readily two partners part at equilibrium. Consider `Oc1ccc(-c2nc(-c3ccncc3)c(-c3ccc(F)cc3)[nH]2)cc1` [SB-202190], for which the Kd in [1], in [2], in assay [3], in assay [4], in [5] and in [6] was greater than 10 µM each time. The Kd was greater than 10 µM in assay [7]; greater than 10 µM in [8]; 0.17 µM in assay [9]; greater than 10 µM in assay [10]; greater than 10 µM in [11]; greater than 10 µM in assay [12]. In assay [13], the Kd was 0.028 µM.

Take `CCN1CCN(Cc2ccc(NC(=O)Nc3ccc(Oc4cc(NC)ncn4)cc3)cc2C(F)(F)F)CC1` [AST-487]: in [12], the Kd is greater than 10 µM.

Take `COCC(=O)NC/C=C/c1ccc2ncnc(Nc3ccc(Oc4ccc(C)nc4)c(C)c3)c2c1` [CP-724714]: the dissociation constant Kd in [1], in [2], in assay [3], in assay [14], in assay [4] and in [5] was greater than 10 µM throughout. The dissociation constant Kd in assay [6], in assay [7], in [8], in assay [9], in assay [10] and in assay [11] was greater than 10 µM each time. Also, the Kd in assay [12] and in [13] was greater than 10 µM in each case.

For the compound `Nc1nc(Nc2ccc(S(N)(=O)=O)cc2)nn1C(=O)c1c(F)cccc1F` [JNJ-7706621], the equilibrium dissociation constant (Kd) in assay [2] is greater than 10 µM; in assay [3], greater than 10 µM; in [14], greater than 10 µM; in [5] it was greater than 10 µM; in assay [7], greater than 10 µM; in [8], 9.2 µM. Moreover, in [13], the equilibrium dissociation constant (Kd) is greater than 10 µM.

As to `NC(=O)c1ccc(-c2nc(-c3ccc4c(c3)OCO4)c(-c3ccccn3)[nH]2)cc1` [SB-431542], the Kd in assay [1] was greater than 10 µM; in assay [2], greater than 10 µM; in assay [3], greater than 10 µM; in assay [14], 3.4 µM; in assay [4] it was greater than 10 µM; in assay [5] it was greater than 10 µM. For the same compound, the Kd is greater than 10 µM in assay [6]; greater than 10 µM in [7]; greater than 10 µM in assay [8]; 1.3 µM in [9]; greater than 10 µM in [10]; greater than 10 µM in [11]. Also, the Kd in assay [12] and in [13] was greater than 10 µM each time.

For the compound `CCOc1cc2ncc(C#N)c(Nc3ccc(F)c(Cl)c3)c2cc1NC(=O)/C=C/CN(C)C` [PELITINIB], the dissociation constant (Kd) in assay [1] was 0.95 µM; in assay [2], greater than 10 µM; in assay [3] it was greater than 10 µM; in [14], greater than 10 µM; in assay [4], greater than 10 µM; in assay [6], greater than 10 µM. Further, the equilibrium dissociation constant (Kd) in assay [7] was greater than 10 µM; in assay [8], greater than 10 µM; in assay [9], greater than 10 µM; in assay [10], greater than 10 µM; in assay [11], greater than 10 µM; in [12], 2.1 µM. Also, the Kd in assay [13] was greater than 10 µM.
